Columns and labels:
[1] = molecular target: T1, EGFR T790M (Homo sapiens, UniProt P00533, T790M); experiment: Ba/F3 cell drug screening, Cell Titer Glo; format: cell-based; conditions: Ba/F3 cells expressing EGFR T790M; 72 hours
T1 construct: expressed in transfected cells; host or cells: Ba/F3 (retroviral transduction, pBabe-Puro based vectors)
Outline: (§1)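 Mutant EGFR-driven Ba/F3 cells, maintained in 1 ng/ml EGF, are treated 72 h with a seven-concentration TKI series. Viability is read by CellTiter-Glo, and IC50 derived by variable-slope regression.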

[2] = molecular target: T2, EGFR G719S (Homo sapiens, UniProt P00533, G719S); experiment: Ba/F3 cell drug screening, Cell Titer Glo; format: cell-based; conditions: Ba/F3 cells expressing EGFR G719S; 72 hours
T2 construct: expressed in transfected cells; host or cells: Ba/F3 (retroviral transduction, pBabe-Puro based vectors)
Outline: as §1

[3] = molecular target: T3, EGFR S768I V774M (Homo sapiens, UniProt P00533, S768I/V774M); experiment: Ba/F3 cell drug screening, Cell Titer Glo; format: cell-based; conditions: Ba/F3 cells expressing EGFR S768I V774M; 72 hours
T3 construct: host or cells: Ba/F3 (retroviral transduction, pBabe-Puro based vectors)
Outline: as §1

[4] = molecular target: T4, EGFR Ex19del/T790M/L792H (Homo sapiens, UniProt P00533, DEL746-750/L792H/T790M); experiment: Ba/F3 cell drug screening, Cell Titer Glo; format: cell-based; conditions: Ba/F3 cells expressing EGFR Ex19del/T790M/L792H; 72 hours
T4 construct: expressed in transfected cells; host or cells: Ba/F3 (retroviral transduction, pBabe-Puro based vectors)
Outline: as §1

[5] = system: lung adenocarcinomas harboring EGFR L858R mutations, acquired L718V mutation; experiment: Case study of patient treated with second-generation TKI; format: in vivo, human; conditions: acquired L718V after first-line osimertinib
Description: Case studies of patients treated with second-generation TKIs. Patients were consented under the GEMINI protocol (PA13-0589) which was approved in accordance with the MD Anderson Institutional Review Board.

For `C=CC(=O)N1CCC(Oc2cc3c(Nc4ccc(Cl)c(Cl)c4F)ncnc3cc2OC)CC1` [Poziotinib], the “Response of Cells Comprising T790M-like-S EGFR Mutations to Second-Generation TKIs” value [1] was 4.671, the “Response of Cells Comprising PACC EGFR Mutations to Second-Generation TKIs” value [2] was 0.04616 and the “Response of Cells Comprising PACC EGFR Mutations to Second-Generation TKIs” value [3] was 0.1181. For the same compound, the “Response of Cells Comprising T790M-like-R EGFR Mutations to Second-Generation TKIs” value [4] was 2157 and the “clinical outcome of patient” value [5] was “clinical benefit of stable disease and tumor shrinkage”.

— US20240108623A1, “METHODS OF TREATING CANCER WITH POZIOTINIB” (BOARD OF REGENTS, THE UNIVERSITY OF TEXAS SYSTEM, priority 2021, published 2024)
